Experimental findings from patent publication US20250376441A1, “NOVEL COMPOUND AND PHARMACEUTICAL COMPOSITION COMPRISING SAME AS ACTIVE INGREDIENT” (Industry-Academic Cooperation Foundation, Yonsei University, priority 2017, published 2025) are described below.

The subject of data set [1] is amyloid-beta peptide1-42 degenerative neurological disease-induced mice. In words: Passive avoidance response test. In kind it is in vivo, ICR mice. To be noted: p<0.05 vs beta-amyloid group. On the procedure:
(§1) In order to induce a degenerative neurological disease, the experimental animals of Preparatory Example 1 were anesthetized by inhalation with 2.5% isoflurane. Then, 1 μg of amyloid-beta peptide1-42, a degenerative neurological disease-inducing substance, was administered to the animals at both hippocampal positions (AP: −2.3, L: ±2.0, H: −1.5) using a stereotaxic apparatus. […] For the administration, 1 μl was injected, at a flow rate of 0.2 μl/min, with a […] gas-tight glass syringe (Hamilton, Reno, NV, USA) using a perfusion pump (Pump 22, Harvard Apparatus, South Natick, MA, USA). Subsequently, the syringe was allowed to stand for 5 minutes and then removed.
(§2) Then, a degenerative neurological disease was induced as in Preparation Example 2.
Under a situation where a chamber with a bright light and a dark chamber were connected to each other via a small passage, 4 hours before the experiment, the experimental animals were placed in the chamber with a bright light. The experimental animals instinctively enter the dark chamber. However, after 4 hours of fear learning carried out by using an electric shock to give aversive stimulus, in a case where the experimental animals are placed in the chamber with a bright light, the time until the experimental animals enter the dark chamber was measured and quantified. The results are illustrated in FIG. 10.

The test system is the same in data set [2]. Kind of data set: Rotarod test. To be noted: p<0.05 vs beta-amyloid group. In kind it is in vivo, ICR mice. On the procedure: as §1, §2
As an experiment for evaluating effects of the samples on decreased motor coordination ability and motor sensation associated with a degenerative neurological disease, a rotarod experiment which examines the overall motor function of the test groups was conducted. The experimental method was as follows. […] After 24 hours, the time to lose balance and fall off the rotating cylinder of the same condition was measured, and the result is illustrated in FIG. 11.
On the technique in general: Falling from the rotarod earlier than controls is read as motor impairment.

The test system of another data set is acetylcholine hydrolase. In kind it is in vivo. To be noted: brain tissue. Here is the method:
(§3) Subsequently, the syringe was allowed to stand for 5 minutes and then removed.
Then, acetylcholine hydrolase activity was measured by the following method. To a microplate were continuously added 300 μl of 0.1 M Tris buffer, pH 8.0 (Trizma HCl±Trizmabase), 20 μl of 0.01 M dithionitrobenzoic acid (DTNB; Sigma, USA), 10 μl of brain tissue homogenate (enzyme suspension). Immediately before absorbance measurement, 10 μl of 0.1 M acetylthiocholine chloride (Sigma, USA) as a substrate was added thereto. An absorbance meter was used to observe absorbance changes at 405 nm for 5 minutes, so that acetylcholine hydrolase activity (unit/min/mg protein) was measured.

Data set [3] relates to Tunel positive cells in brain tissue. Kind of data set: Apoptosis level in brain tissue by TUNEL assay. In kind it is in vivo, ICR mice. On the procedure: as §3
Then, an apoptosis level was checked through TUNEL assay. The TUNEL assay is a method to search for cells that have undergone apoptosis by attaching a fluorescent substance to ends of DNA fragments cleaved due to apoptosis. The extracted brain tissue of the experimental animal is fixed by perfusion with 4% formaldehyde. Then, the brain tissue was embedded in paraffin and sectioned to a thickness of 5 μm. The brain tissue fixed on a slide was subjected to a TUNEL assay kit so that the end portions where DNA having undergone apoptosis had been fragmented are fluorescence-stained, and checked by a fluorescence microscope.

The format of data set [4] is in vitro ADME. To be noted: PAMPA. An excerpt: The results are illustrated in FIG. 17.
In general terms: PAMPA measures passive passage across an artificial lipid membrane.

In data set [5] the test system is Salmonella typhimurium TA100. On the procedure: For each strain, treatment with a single concentration of 200 μg/plate was performed in triplicate and mutation was checked.
For another data set, the system named is VERO. In words: Cytotoxicity test (Cyto X cell viability assay kit), VERO. In kind it is cell-based. To be noted: Chlorocebus sabaeus. On the procedure:
(§4) In order to identify whether the Preparation Example 6 according to the present invention is toxic to cells, a cytotoxicity test was conducted at the Korea Research Institute of Chemical Technology using the Cyto X™ cell viability assay kit ([…]).

For a further data set, the system named is HFL-1. Kind of data set: Cytotoxicity test (Cyto X cell viability assay kit), HFL-1. In kind it is cell-based. Particulars: Homo sapiens, HFL1. On the procedure: as §4
The next data set relates to CHO-K1. Kind of data set: Cytotoxicity test (Cyto X cell viability assay kit), CHO-K1. Particulars: Cricetulus griseus. In kind it is cell-based. Here is the method:
as §4

A further data set deals with hERG channel (Homo sapiens, UniProt Q12809). Kind of data set: Cardiac stability test, hERG ligand binding assay. To be noted: read-out: Inhibition rate. On the technique in general: hERG is a cardiac potassium channel; its block is linked to QT prolongation.
Data set [6] can be described thus: Lipophilicity (pKa, LogP). In kind it is physicochemical. To be noted: ACD/Labs T3 (pH-metrior). On the procedure:
(§5) For a preliminary examination on clinical application of the Preparation Example 6, evaluation on lipophilicity and solubility was performed.

Data set [7] in a line: Solubility by nephelometry. In kind it is physicochemical. To be noted: 5% DMSO in water, aqueous with cosolvent or surfactant or cyclodextrin, kinetic from dmso stock, DMSO 5%/water solvent. On the procedure:
as §5

The nature of another data set: Half-life test. An excerpt: In order to identify whether the Preparation Example 6 according to the present invention can be orally administered, a half-life of the compound was checked. […] The results are illustrated in FIG. 18.

Where “and” joins values, the source holds several entries; their conditions need not be identical. Equal values may be shown once. Read-outs that look alike come from different tables or passages of the source.

Chain of hERG channel (Q12809 whole entry): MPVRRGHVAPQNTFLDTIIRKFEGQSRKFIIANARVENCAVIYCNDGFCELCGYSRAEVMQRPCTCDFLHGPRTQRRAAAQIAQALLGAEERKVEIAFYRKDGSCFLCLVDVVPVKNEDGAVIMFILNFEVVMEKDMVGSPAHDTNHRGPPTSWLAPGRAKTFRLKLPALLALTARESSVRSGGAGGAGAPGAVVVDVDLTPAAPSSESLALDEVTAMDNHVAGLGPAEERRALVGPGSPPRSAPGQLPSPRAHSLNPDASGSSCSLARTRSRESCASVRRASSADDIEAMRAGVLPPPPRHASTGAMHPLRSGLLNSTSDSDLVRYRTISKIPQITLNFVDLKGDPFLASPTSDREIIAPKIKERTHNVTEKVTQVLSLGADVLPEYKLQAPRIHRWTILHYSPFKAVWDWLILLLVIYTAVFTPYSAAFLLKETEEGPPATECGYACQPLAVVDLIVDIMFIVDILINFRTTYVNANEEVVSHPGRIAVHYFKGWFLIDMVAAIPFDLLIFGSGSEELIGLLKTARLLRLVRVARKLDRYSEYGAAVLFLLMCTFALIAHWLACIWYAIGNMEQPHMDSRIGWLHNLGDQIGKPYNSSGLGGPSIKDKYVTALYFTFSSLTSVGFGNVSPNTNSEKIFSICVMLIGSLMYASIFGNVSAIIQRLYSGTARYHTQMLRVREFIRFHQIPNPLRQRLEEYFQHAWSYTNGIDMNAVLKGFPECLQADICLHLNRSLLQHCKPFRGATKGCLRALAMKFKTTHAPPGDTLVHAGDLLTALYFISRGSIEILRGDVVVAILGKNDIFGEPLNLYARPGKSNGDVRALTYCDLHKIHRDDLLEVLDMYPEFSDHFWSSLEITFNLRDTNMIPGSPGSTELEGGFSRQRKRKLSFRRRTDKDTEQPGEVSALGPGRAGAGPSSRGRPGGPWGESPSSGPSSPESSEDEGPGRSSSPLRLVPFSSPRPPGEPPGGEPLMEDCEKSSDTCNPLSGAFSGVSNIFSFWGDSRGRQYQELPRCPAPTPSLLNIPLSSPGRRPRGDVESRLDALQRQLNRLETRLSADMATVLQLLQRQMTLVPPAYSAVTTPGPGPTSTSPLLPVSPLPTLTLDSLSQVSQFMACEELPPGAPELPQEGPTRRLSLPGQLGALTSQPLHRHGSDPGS

A word on the IC50: it is the concentration that inhibits the measured activity by half. A word on the inhibition: it is the share of the control response that was lost under treatment. What is called logP is the decadic logarithm of the partition coefficient of the neutral form, usually between octanol and water. Higher therefore signals higher lipophilicity. As a reminder, the solubility is the concentration that dissolves in the medium under given conditions. As a reminder, the half-life is how long it takes for the measured level to halve. Higher therefore signals slow loss. `COc1ccc(OC)c(/C=C/C(=O)c2ccc(NS(=O)(=O)c3ccc(Cl)cc3)cc2)c1` [Preparation Example 6, (E)-4-Chloro-N-(4-(3-(2,5-dimethoxyphenyl)acryloyl)phenyl)benzenesulfonamide]: the “staying time in the chamber with a bright light” value in data set [1] (10 mg) came to 156.87 ± 50.95 s; in [1] (100 mg) it was 153.48 ± 34.71 s. Moreover, the “time to keep balance on the rotating cylinder” value in data set [2] (10 mg) amounted to 48.62 ± 10.54 s; in data set [2] (100 mg), 47.65 ± 8.13 s. The values for the acetylcholine hydrolase activity with acetylcholine hydrolase (10 mg) and with acetylcholine hydrolase (100 mg) were 0.25±0.07 U/mg protein and 0.24±0.05 U/mg protein, respectively. Further, the “number of Tunel positive cells” value worked out at 88.83±18.98 in [3] (1 mg, p<0.05); 69.5±17.87 in [3] (10 mg, p<0.01); 67.00±19.54 in data set [3] (100 mg, p<0.01). Moreover, the degree of permeability entry in data set [4] is reported as “medium value”. Moreover, the “membrane permeability measured value” in data set [4] was −4.4±0.152. Also, the “Ames reverse mutation test outcome” value in [5] (TA100, 200 μg/plate, with or without S9) is given as “negative”. Further, in data set [5] (TA100, with S-9, factor versus control), the “Reverse mutation [factor] with S-9 mix” value was “[1.0]”. The “Reverse mutation/dish (mean ± SD) with S-9 mix” value in data set [5] (TA100, with S-9, Preparation Example 6 at 200 μg/plate, Benzo(a)pyrene concentration 2) was found to be 117 ± 4. The “Reverse mutation [factor] w/o S-9 mix” value in data set [5] (TA100, without S-9, factor versus control) is “[0.9]”. In data set [5] (TA100, without S-9, Preparation Example 6 at 200 μg/plate, Sodium azide concentration 1), the “Reverse mutation/dish (mean ± SD) w/o S-9 mix” value was 104 ± 12. For the same compound, the IC50 was 83.6 µM in the data set on VERO, above 100 µM in the data set with HFL-1 and above 100 µM in the data set with CHO-K1. The values for the inhibition at 10 µM on hERG channel (hERG channel (ligand binding assay)) and at hERG channel were below 1% and at most 1%, respectively. The compound further had a logP in [6] of 4.75. Further, the solubility in [7] was 206 µM and 94.4 µg/mL. Also, in the data set “Half-life test”, the half-life was at least 3 h.
